Reference: patent publication US20200369728A1, “PEPTIDOMIMETIC MACROCYCLES AND USES THEREOF” (Aileron Therapeutics, Inc., priority 2015, published 2020)
Bridge positions count the residues as written; N and C are the ends. Square brackets hold non-standard residues; d marks the D form. Peptide text beside a SMILES is read from it. R8 = C=CCCCCCC[C@@](C)(N)C(=O)O; Cha = N[C@@H](CC1CCCCC1)C(=O)O; Cba = N[C@@H](CC1CCC1)C(=O)O; hLeu = CC(C)CC[C@H](N)C(=O)O; S5 = C=CCCC[C@](C)(N)C(=O)O; Nle = CCCC[C@H](N)C(=O)O; Ac3c = NC1(C(=O)O)CC1

How the values were obtained:
[1] = system: SJSA-1 cells; assay: Cell lysis by peptidomimetic macrocycles (LDH release); type: cell-based; settings: SJSA-1, 1 h
Description: SJSA-1 cells were plated out one day in advance in clear flat-bottom plates (Costar, catalog number 353072) at 7500 cells/well with 100 ul/well of growth media, leaving row H columns 10-12 empty for media alone. On the day of the assay, media was exchanged with RPMI 1% FBS media, 90 uL of media per well.
10 mM stock solutions of the peptidomimetic macrocycles were prepared in 100% DMSO. Peptidomimetic macrocycles were then diluted serially in 100% DMSO, and then further diluted 20-fold in sterile water to prepare working stock solutions in 5% DMSO/water of each peptidomimetic macrocycle at concentrations ranging from 500 μM to 62.5 μM.
10 μL of each compound was added to the 90 uL of SJSA-1 cells to yield final concentrations of 50 μM to 6.25 μM in 0.5% DMSO-containing media. The negative control (non-lytic) sample was 0.5% DMSO alone and positive control (lytic) samples include 10 μM Melittin and 1% Triton X-100.
Cell plates were incubated for 1 hour at 37° C. After the 1 hour incubation, the morphology of the cells is examined by microscope and then the plates were centrifuged at 1200 rpm for 5 minutes at room temperature. 40 μL of supernatant for each peptidomimetic macrocycle and control sample is transferred to clear assay plates. LDH release is measured using the LDH cytotoxicity assay kit from Caymen, catalog #1000882.

[2] = system: Caspase 3; assay: Caspase 3 detection assay in SJSA1 cells; type: cell-based; settings: SJSA1, 48 h, Caspase 3 activation over DMSO-treated cells

CC(=O)N[C@@H](Cc1ccccc1)C(=O)N[C@]1(C)CCCCCCC=CCCC[C@@](C)(C(=O)N[C@@H](Cc2c[nH]cn2)C(=O)N[C@@H](CCCNC(=N)N)C(=O)N[C@@H](Cc2ccccc2)C(=O)N[C@@H](CC2CCCCC2)C(N)=O)NC(=O)[C@H](CC(C)C)NC(=O)[C@H](CCC(N)=O)NC(=O)[C@H](Cc2c[nH]cn2)NC(=O)[C@H](Cc2c[nH]c3ccccc23)NC(=O)[C@H](Cc2c[nH]cn2)NC(=O)[C@H](Cc2c[nH]cn2)NC1=O [compound 55] (Ac-F[R8]HHWHQL[S5]HRF[Cha]-NH2; staple 2-9)
6.25 μM % Lysed cells (1 h LDH) [1]: 1% | 25 μM % Lysed cells (1 h LDH) [1]: 9% | 50 μM % Lysed cells (1 h LDH) [1]: 13%

CC(=O)N[C@@H](CC(C)C)C(=O)N[C@H](C(=O)N[C@@H](Cc1ccccc1)C(=O)N[C@]1(C)CCCCCCC=CCCC[C@@](C)(C(=O)N[C@@H](C)C(=O)N[C@@H](Cc2c[nH]cn2)C(=O)N[C@@H](Cc2ccccc2)C(=O)N[C@@H](C)C(N)=O)NC(=O)[C@H](CC(C)C)NC(=O)[C@H](CCC(N)=O)NC(=O)[C@H](C(C)C)NC(=O)[C@H](Cc2c[nH]c3ccccc23)NC(=O)[C@H](Cc2c[nH]cn2)NC(=O)[C@H](C)NC1=O)[C@@H](C)O [compound 190] (Ac-LTF[R8]AHWVQL[S5]AHFA-NH2; staple 4-11)
6.25 μM % Lysed cells (1 h LDH) [1]: −1% | 25 μM % Lysed cells (1 h LDH) [1]: 0% | 50 μM % Lysed cells (1 h LDH) [1]: 1%

CC(=O)N[C@@H](Cc1c[nH]cn1)C(=O)N[C@@H](CC(C)C)C(=O)N[C@H](C(=O)N[C@@H](Cc1ccccc1)C(=O)N[C@]1(C)CCCCCCC=CCCC[C@@](C)(C(=O)N[C@@H](C)C(=O)N[C@@H](C)C(=O)N[C@@H](CCC(C)C)C(=O)N[C@@H](C)C(N)=O)NC(=O)[C@H](CC(C)C)NC(=O)[C@H](CCC(N)=O)NC(=O)[C@H](Cc2c[nH]cn2)NC(=O)[C@H](Cc2c[nH]c3ccccc23)NC(=O)[C@H](Cc2c[nH]cn2)NC(=O)[C@H](Cc2c[nH]cn2)NC1=O)[C@@H](C)O [compound 32] (Ac-HLTF[R8]HHWHQL[S5]AA[hLeu]A-NH2; staple 5-12)
6.25 μM % Lysed cells (1 h LDH) [1]: 0% | 25 μM % Lysed cells (1 h LDH) [1]: 2% | 50 μM % Lysed cells (1 h LDH) [1]: 0%

CCCC[C@H](NC(=O)[C@H](C)NC(=O)[C@H](C)NC(=O)[C@]1(C)CCCC=CCCCCCC[C@@](C)(NC(=O)[C@H](Cc2ccccc2)NC(=O)[C@@H](NC(=O)[C@H](CC(C)C)NC(C)=O)[C@@H](C)O)C(=O)N[C@@H](CCC(=O)O)C(=O)N[C@@H](Cc2ccc(O)cc2)C(=O)N[C@@H](Cc2c[nH]c3ccccc23)C(=O)N[C@@H](C)C(=O)N[C@@H](CCC(N)=O)C(=O)N[C@@H](CC2CCC2)C(=O)N1)C(=O)N[C@@H](C)C(N)=O [compound 238] (Ac-LTF[R8]EYWAQ[Cba][S5]AA[Nle]A-NH2; staple 4-11)
caspase 0.3 μM [2]: 1 | caspase 3 μM [2]: 2 | caspase 10 μM [2]: 4 | caspase 30 μM [2]: 21

CC(=O)N[C@@H](CCC(=O)O)C(=O)N[C@H](C(=O)N[C@@H](Cc1ccccc1)C(=O)N[C@]1(C)CCCCCCC=CCCC[C@@](C)(C(=O)N[C@@H](C)C(=O)N[C@@H](C)C(=O)N[C@@H](C)C(=O)N[C@@H](C)C(=O)N[C@@H](C)C(=O)N[C@H](C)C(N)=O)NC(=O)[C@H](CC(C)C)NC(=O)[C@H](CCC(N)=O)NC(=O)[C@H](C)NC(=O)[C@H](Cc2c[nH]c3ccccc23)NC(=O)[C@H](Cc2ccc(O)cc2)NC(=O)[C@H](CCC(=O)O)NC1=O)[C@@H](C)O (single isomer, unassigned) [compound 340]
6.25 μM % Lysed cells (1 h LDH) [1]: 0% | 25 μM % Lysed cells (1 h LDH) [1]: 0% | 50 μM % Lysed cells (1 h LDH) [1]: 0%

CC[C@H](C)[C@H](NC(=O)[C@H](C)NC(=O)[C@H](C)NC(=O)[C@]1(C)CCCC=CCCCCCC[C@@](C)(NC(=O)[C@H](Cc2ccccc2)NC(=O)[C@@H](NC(=O)[C@H](CC(C)C)NC(C)=O)[C@@H](C)O)C(=O)N[C@@H](CCC(=O)O)C(=O)N[C@@H](Cc2ccc(O)cc2)C(=O)N[C@@H](Cc2c[nH]c3ccccc23)C(=O)N[C@@H](C)C(=O)N[C@@H](CCC(N)=O)C(=O)N[C@@H](CC(C)C)C(=O)N1)C(=O)N[C@H](C)C(N)=O (single isomer, unassigned) [compound 217]
6.25 μM % Lysed cells (1 h LDH) [1]: 2% | 25 μM % Lysed cells (1 h LDH) [1]: 1% | 50 μM % Lysed cells (1 h LDH) [1]: 2%

CCCC[C@H](NC(=O)[C@H](C)NC(=O)[C@H](C)NC(=O)[C@]1(C)CCCC=CCCCCCC[C@@](C)(NC(=O)[C@H](Cc2ccccc2)NC(=O)[C@@H](NC(=O)[C@H](CC(C)C)NC(C)=O)[C@@H](C)O)C(=O)N[C@@H](C)C(=O)N[C@@H](Cc2ccc(O)cc2)C(=O)N[C@@H](Cc2c[nH]c3ccccc23)C(=O)N[C@@H](Cc2cc(=O)oc3cc(OC)c(OC)cc23)C(=O)N[C@@H](CCC(N)=O)C(=O)N[C@@H](CC(C)C)C(=O)N1)C(=O)N[C@@H](C)C(N)=O [compound 415]
6.25 μM % Lysed cells (1 h LDH) [1]: 4% | 25 μM % Lysed cells (1 h LDH) [1]: 2% | 50 μM % Lysed cells (1 h LDH) [1]: 2%

CC(=O)N[C@@H](CC(C)C)C(=O)N[C@H](C(=O)N[C@@H](Cc1ccccc1)C(=O)N[C@]1(C)CCCCCCC=CCCC[C@@](C)(C(=O)N[C@@H](C)C(=O)N[C@H](C(=O)NCC(N)=O)C(C)C)NC(=O)[C@H](CC(C)C)NC(=O)[C@H](CCC(N)=O)NC(=O)[C@H](C)NC(=O)[C@H](Cc2c[nH]c3ccccc23)NC(=O)[C@H](Cc2ccc(O)cc2)NC(=O)[C@H](C)NC1=O)[C@@H](C)O (single isomer, unassigned) [compound 108]
6.25 μM % Lysed cells (1 h LDH) [1]: 0% | 25 μM % Lysed cells (1 h LDH) [1]: 0% | 50 μM % Lysed cells (1 h LDH) [1]: 1%

CC(=O)N[C@@H](Cc1ccccc1)C(=O)N[C@]1(C)CCCCCCC=CCCC[C@@](C)(C(=O)N[C@@H](C)C(=O)N[C@@H](C)C(=O)N[C@@H](CC(C)C)C(N)=O)NC(=O)[C@H](CC(C)C)NC(=O)C2(CC2)NC(=O)[C@H](CCC(=O)O)NC(=O)[C@H](Cc2c[nH]c3ccccc23)NC(=O)[C@H](Cc2ccc(O)cc2)NC(=O)[C@H](C)NC1=O [compound 15] (Ac-F[R8]AYWE[Ac3c]L[S5]AAL-NH2; staple 2-9)
6.25 μM % Lysed cells (1 h LDH) [1]: 1% | 25 μM % Lysed cells (1 h LDH) [1]: 2% | 50 μM % Lysed cells (1 h LDH) [1]: 5%

CC(=O)N[C@@H](CC(C)C)C(=O)N[C@H](C(=O)N[C@@H](Cc1ccccc1)C(=O)N[C@]1(C)CCCCCCC=CCCC[C@@](C)(C(=O)N[C@@H](C)C(=O)N[C@@H](C)C(=O)N[C@@H](Cc2c[nH]c3ccccc23)C(=O)N[C@H](C)C(N)=O)NC(=O)[C@H](CC(C)C)NC(=O)[C@H](CCC(N)=O)NC(=O)[C@H](C)NC(=O)[C@H](Cc2c[nH]c3ccccc23)NC(=O)[C@H](Cc2ccc(O)cc2)NC(=O)[C@H](C)NC1=O)[C@@H](C)O [compound 211] (Ac-LTF[R8]AYWAQL[S5]AAW[dA]-NH2; staple 4-11)
6.25 μM % Lysed cells (1 h LDH) [1]: 5% | 25 μM % Lysed cells (1 h LDH) [1]: 3% | 50 μM % Lysed cells (1 h LDH) [1]: 1%

CC(=O)N[C@@H](CCC(=O)O)C(=O)N[C@H](C(=O)N[C@@H](Cc1ccccc1)C(=O)N[C@]1(C)CCCCCCC=CCCC[C@@](C)(C(=O)N[C@@H](CO)C(=O)N[C@@H](CC(C)C)C(=O)N[C@@H](C)C(N)=O)NC(=O)[C@H](CC(C)C)NC(=O)[C@H](CCC(N)=O)NC(=O)[C@H](C)NC(=O)[C@H](Cc2c[nH]c3ccccc23)NC(=O)[C@H](Cc2ccc(O)cc2)NC(=O)[C@H](C(C)C)NC1=O)[C@@H](C)O [compound 127] (Ac-ETF[R8]VYWAQL[S5]SLA-NH2; staple 4-11)
caspase 0.3 μM [2]: 1 | caspase 3 μM [2]: 1 | caspase 10 μM [2]: 4 | caspase 30 μM [2]: 13

CC(=O)N[C@@H](CC(C)C)C(=O)N[C@H](C(=O)N[C@@H](Cc1ccccc1)C(=O)N[C@]1(C)CCCCCCC=CCCC[C@@](C)(C(=O)N[C@@H](CO)C(=O)N[C@@H](C)C(=O)N[C@@H](Cc2ccccc2)C(=O)N[C@@H](C)C(N)=O)NC(=O)[C@H](CC2CCC2)NC(=O)[C@H](CCC(N)=O)NC(=O)[C@H](C)NC(=O)[C@H](Cc2c[nH]c3ccccc23)NC(=O)[C@H](Cc2ccc(O)cc2)NC(=O)[C@H](CCC(=O)O)NC1=O)[C@@H](C)O [compound 242] (Ac-LTF[R8]EYWAQ[Cba][S5]SAFA-NH2; staple 4-11)
caspase 0.3 μM [2]: 1 | caspase 3 μM [2]: 4 | caspase 10 μM [2]: 5 | caspase 30 μM [2]: 18
